Reference: the NIST ThermoML archive (doi:10.1016/j.jct.2006.05.004)

Legend:
[1] = excess molar enthalpy (molar enthalpy of mixing); xn = mol fraction of the nth substance listed; details: 298.15 K, 101 kPa, Liquid
[2] = xn = mol fraction of the nth substance listed; details: 298.15 K, 101 kPa, Liquid

BrCCCBr [1,3-dibromopropane] + CCCC(=O)OC
Details | excess molar enthalpy [kcal/mol] | mass density [kg/m3]
[1], x2 = 0.0571 | 0.00789 | –
[1], x2 = 0.1319 | 0.0136 | –
[1], x2 = 0.2164 | 0.0167 | –
[1], x2 = 0.3018 | 0.0163 | –
[1], x2 = 0.3823 | 0.0126 | –
[1], x2 = 0.4559 | 0.00676 | –
[1], x2 = 0.5207 | -0.000191 | –
[1], x2 = 0.5371 | -0.00325 | –
[1], x2 = 0.5718 | -0.00545 | –
[1], x2 = 0.6497 | -0.00978 | –
[1], x2 = 0.7433 | -0.0109 | –
[1], x2 = 0.8389 | -0.00956 | –
[1], x2 = 0.9316 | -0.00511 | –
[2], x2 = 0.0527 | – | 1904.53
[2], x2 = 0.1033 | – | 1844.63
[2], x2 = 0.1625 | – | 1775.48
[2], x2 = 0.2135 | – | 1716.63
[2], x2 = 0.268 | – | 1654.61
[2], x2 = 0.3273 | – | 1588.07
[2], x2 = 0.3844 | – | 1524.77
[2], x2 = 0.4397 | – | 1464.34
[2], x2 = 0.4966 | – | 1402.92
[2], x2 = 0.5597 | – | 1335.77
[2], x2 = 0.6194 | – | 1273.09
[2], x2 = 0.6773 | – | 1213.28
[2], x2 = 0.7401 | – | 1149.07
[2], x2 = 0.8089 | – | 1079.72
[2], x2 = 0.8623 | – | 1026.6
[2], x2 = 0.9397 | – | 950.76

BrCCCBr [1,3-dibromopropane] + CCCCC(=O)OC
Details | excess molar enthalpy [kcal/mol] | mass density [kg/m3]
[1], x2 = 0.0492 | 0.00571 | –
[1], x2 = 0.1163 | 0.00925 | –
[1], x2 = 0.1938 | 0.00973 | –
[1], x2 = 0.2736 | 0.00767 | –
[1], x2 = 0.338 | 0.00421 | –
[1], x2 = 0.41 | -0.00237 | –
[1], x2 = 0.4582 | -0.00743 | –
[1], x2 = 0.4998 | -0.0112 | –
[1], x2 = 0.5481 | -0.0146 | –
[1], x2 = 0.6786 | -0.0158 | –
[1], x2 = 0.7994 | -0.0132 | –
[1], x2 = 0.9065 | -0.00848 | –
[2], x2 = 0.0534 | – | 1896.4
[2], x2 = 0.0937 | – | 1841.97
[2], x2 = 0.1477 | – | 1771.31
[2], x2 = 0.188 | – | 1720.07
[2], x2 = 0.2439 | – | 1650.83
[2], x2 = 0.2975 | – | 1586.35
[2], x2 = 0.3439 | – | 1532.03
[2], x2 = 0.4116 | – | 1455.16
[2], x2 = 0.4656 | – | 1395.81
[2], x2 = 0.5216 | – | 1335.88
[2], x2 = 0.5922 | – | 1262.69
[2], x2 = 0.6481 | – | 1206.41
[2], x2 = 0.7047 | – | 1151.1
[2], x2 = 0.7835 | – | 1076.35
[2], x2 = 0.8493 | – | 1016.07
[2], x2 = 0.9201 | – | 953.2

BrCCCBr [1,3-dibromopropane] + COC(C)=O
Details | excess molar enthalpy [kcal/mol] | mass density [kg/m3]
[1], x2 = 0.08 | 0.034 | –
[1], x2 = 0.1613 | 0.0558 | –
[1], x2 = 0.2406 | 0.0748 | –
[1], x2 = 0.3177 | 0.0867 | –
[1], x2 = 0.3862 | 0.091 | –
[1], x2 = 0.4435 | 0.0934 | –
[1], x2 = 0.4958 | 0.0935 | –
[1], x2 = 0.5468 | 0.0894 | –
[1], x2 = 0.5909 | 0.0838 | –
[1], x2 = 0.6336 | 0.078 | –
[1], x2 = 0.6509 | 0.0747 | –
[1], x2 = 0.6702 | 0.0722 | –
[1], x2 = 0.7094 | 0.0627 | –
[1], x2 = 0.7687 | 0.0505 | –
[1], x2 = 0.8316 | 0.0365 | –
[1], x2 = 0.8928 | 0.0229 | –
[1], x2 = 0.9501 | 0.0112 | –
[2], x2 = 0.0821 | – | 1900.75
[2], x2 = 0.1456 | – | 1845.13
[2], x2 = 0.2131 | – | 1784.87
[2], x2 = 0.2862 | – | 1717.43
[2], x2 = 0.3503 | – | 1656.68
[2], x2 = 0.412 | – | 1596.53
[2], x2 = 0.4744 | – | 1533.88
[2], x2 = 0.535 | – | 1471.53
[2], x2 = 0.5898 | – | 1413.65
[2], x2 = 0.6476 | – | 1350.9
[2], x2 = 0.7027 | – | 1289.26
[2], x2 = 0.7565 | – | 1227.76
[2], x2 = 0.8086 | – | 1166.64
[2], x2 = 0.8558 | – | 1109.89
[2], x2 = 0.905 | – | 1048.62
[2], x2 = 0.9514 | – | 989.83

BrCCCBr [1,3-dibromopropane] + COC=O
Details | excess molar enthalpy [kcal/mol] | mass density [kg/m3]
[1], x2 = 0.0766 | 0.0726 | –
[1], x2 = 0.1698 | 0.136 | –
[1], x2 = 0.2646 | 0.178 | –
[1], x2 = 0.3543 | 0.204 | –
[1], x2 = 0.4503 | 0.219 | –
[1], x2 = 0.5147 | 0.221 | –
[1], x2 = 0.5752 | 0.216 | –
[1], x2 = 0.6318 | 0.206 | –
[1], x2 = 0.6814 | 0.192 | –
[1], x2 = 0.7238 | 0.176 | –
[1], x2 = 0.7605 | 0.159 | –
[1], x2 = 0.8277 | 0.123 | –
[1], x2 = 0.8783 | 0.0928 | –
[1], x2 = 0.9299 | 0.0593 | –
[2], x2 = 0.168 | – | 1858.59
[2], x2 = 0.2514 | – | 1796.92
[2], x2 = 0.3294 | – | 1735.49
[2], x2 = 0.4017 | – | 1674.57
[2], x2 = 0.4684 | – | 1614.73
[2], x2 = 0.5278 | – | 1558.51
[2], x2 = 0.591 | – | 1495.15
[2], x2 = 0.6438 | – | 1439.24
[2], x2 = 0.7014 | – | 1374.75
[2], x2 = 0.7953 | – | 1261.18
[2], x2 = 0.8394 | – | 1203.31
[2], x2 = 0.8849 | – | 1141.17
[2], x2 = 0.9258 | – | 1082.23

BrCCCCBr [1,4-dibromobutane] + CCC(=O)OC
Details | excess molar enthalpy [kcal/mol] | mass density [kg/m3]
[1], x2 = 0.074 | 0.0219 | –
[1], x2 = 0.1513 | 0.0366 | –
[1], x2 = 0.2294 | 0.0459 | –
[1], x2 = 0.305 | 0.0495 | –
[1], x2 = 0.3744 | 0.0494 | –
[1], x2 = 0.4375 | 0.0468 | –
[1], x2 = 0.4948 | 0.0428 | –
[1], x2 = 0.546 | 0.0378 | –
[1], x2 = 0.5911 | 0.0327 | –
[1], x2 = 0.6302 | 0.0274 | –
[1], x2 = 0.6539 | 0.0245 | –
[1], x2 = 0.665 | 0.0245 | –
[1], x2 = 0.6965 | 0.0181 | –
[1], x2 = 0.712 | 0.016 | –
[1], x2 = 0.7721 | 0.00839 | –
[1], x2 = 0.8331 | 0.00425 | –
[1], x2 = 0.8921 | 0.00227 | –
[1], x2 = 0.9477 | 0.000956 | –
[2], x2 = 0.0733 | – | 1763.63
[2], x2 = 0.1392 | – | 1712.4
[2], x2 = 0.2065 | – | 1658.81
[2], x2 = 0.2725 | – | 1604.96
[2], x2 = 0.3378 | – | 1550.31
[2], x2 = 0.3974 | – | 1499.32
[2], x2 = 0.4596 | – | 1444.8
[2], x2 = 0.5225 | – | 1388.41
[2], x2 = 0.638 | – | 1281.23
[2], x2 = 0.6944 | – | 1227.08
[2], x2 = 0.7466 | – | 1175.87
[2], x2 = 0.7998 | – | 1122.53
[2], x2 = 0.8489 | – | 1072.14
[2], x2 = 0.8998 | – | 1018.87
[2], x2 = 0.9505 | – | 964.61

BrCCCCBr [1,4-dibromobutane] + CCCC(=O)OC
Details | excess molar enthalpy [kcal/mol] | mass density [kg/m3]
[1], x2 = 0.0662 | 0.0111 | –
[1], x2 = 0.1525 | 0.019 | –
[1], x2 = 0.2456 | 0.0232 | –
[1], x2 = 0.3392 | 0.0233 | –
[1], x2 = 0.4222 | 0.019 | –
[1], x2 = 0.4708 | 0.0156 | –
[1], x2 = 0.5515 | 0.00743 | –
[1], x2 = 0.6276 | 0.000621 | –
[1], x2 = 0.6882 | -0.00366 | –
[1], x2 = 0.7845 | -0.0054 | –
[1], x2 = 0.8702 | -0.00452 | –
[1], x2 = 0.9455 | -0.00256 | –
[2], x2 = 0.121 | – | 1710.83
[2], x2 = 0.1809 | – | 1656.55
[2], x2 = 0.2384 | – | 1604.18
[2], x2 = 0.2953 | – | 1552.31
[2], x2 = 0.3601 | – | 1492.93
[2], x2 = 0.4182 | – | 1439.44
[2], x2 = 0.4848 | – | 1377.96
[2], x2 = 0.5382 | – | 1328.46
[2], x2 = 0.5989 | – | 1272
[2], x2 = 0.653 | – | 1221.36
[2], x2 = 0.7699 | – | 1111.48
[2], x2 = 0.8252 | – | 1059.19
[2], x2 = 0.8804 | – | 1006.8
